Assay results from US20240132431A1, “METHOD FOR ALKYLATING ACIDIC FUNCTIONAL GROUP” (Chugai Seiyaku Kabushiki Kaisha, priority 2021, published 2024).

Biological target: T1, Bcl-2 protein (Recombinant Human Bcl-2 Protein) (Homo sapiens, UniProt P10415)
T1 construct: purchased Novus NBP2-34889
Assay: Binding evaluation of mixture library compounds to Bcl-2 using AS-MS (affinity selection mass spectrometry)
How it was run: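 Readout is ASMS Ratio (%), (A−C)/B×100, from reversed-phase LC/MS of SEC-passed extracts, with protein-free unfiltered standard (B) and protein-free SEC blank (C). Recombinant human Bcl-2 at 20 μM final met ~1200 pooled compounds at […] each for 1 h, 23° C., dark, in Tris-HCl pH 7.4 buffer.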

T1 sequence (P10415 whole entry): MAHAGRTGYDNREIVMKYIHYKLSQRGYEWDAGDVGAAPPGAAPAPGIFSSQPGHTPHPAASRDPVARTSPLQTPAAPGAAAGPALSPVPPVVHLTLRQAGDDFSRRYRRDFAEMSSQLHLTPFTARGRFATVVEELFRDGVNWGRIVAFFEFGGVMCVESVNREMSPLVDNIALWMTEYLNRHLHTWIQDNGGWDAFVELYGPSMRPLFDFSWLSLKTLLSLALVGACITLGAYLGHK

Row | Compound | ASMS ratio (%) (n = 1) | ASMS ratio (%) (n = 2)
1 | CCOc1cncc(-c2cc(C(=O)N3CCN(c4ccc(C(=O)NS(=O)(=O)C(C)(C)C)nn4)CC3)cc(C(F)(F)F)c2)c1 [B2L018-01, N-tert-Butylsulfonyl-6-[4-[3-(5-ethoxypyridin-3-yl)-5-(trifluoromethyl)benzoyl]piperazin-1-yl]pyridazine-3-carboxamide] | −1.9% | −2.5%
2 | CCOc1cncc(C#Cc2cc(C(=O)N3CCN(c4ccc(C(=O)NS(=O)(=O)C(C)(C)C)nn4)CC3)cc(C(F)(F)F)c2)c1 [B2L020-01, N-tert-Butylsulfonyl-6-[4-[3-[2-(5-ethoxypyridin-3-yl)ethynyl]-5-(trifluoromethyl)benzoyl]piperazin-1-yl]pyridazine-3-carboxamide] | 0.0% | 0.0%
3 | CCOc1cccc(-c2cnn(-c3cc(C(=O)N4CCN(c5ccc(C(=O)NS(=O)(=O)C(C)(C)C)nn5)CC4)cc(C(F)(F)F)c3)c2)c1 [B2L021-01, N-tert-Butylsulfonyl-6-[4-[3-[4-(3-ethoxyphenyl)pyrazol-1-yl]-5-(trifluoromethyl)benzoyl]piperazin-1-yl]pyridazine-3-carboxamide] | 0.0% | −14.9%
4 | CCOc1cncc(-c2cnn(-c3cc(C(=O)N4CCN(c5ccc(C(=O)NS(=O)(=O)C(C)(C)C)nn5)CC4)cc(C(F)(F)F)c3)c2)c1 [B2L022-01, N-tert-Butylsulfonyl-6-[4-[3-[4-(5-ethoxypyridin-3-yl)pyrazol-1-yl]-5-(trifluoromethyl)benzoyl]piperazin-1-yl]pyridazine-3-carboxamide] | 0.0% | 0.0%
5 | CCOc1cccc(-c2csc(C(=O)N3CCN(c4ccc(C(=O)NS(=O)(=O)C(C)(C)C)cc4)CC3)c2)c1 [B2L023-01, N-tert-Butylsulfonyl-4-[4-[4-(3-ethoxyphenyl)thiophene-2-carbonyl]piperazin-1-yl]benzamide] | 0.0% | 0.0%
6 | CCOc1cncc(-c2csc(C(=O)N3CCN(c4ccc(C(=O)NS(=O)(=O)C(C)(C)C)cc4)CC3)c2)c1 [B2L024-01, N-tert-Butylsulfonyl-4-[4-[4-(5-ethoxypyridin-3-yl)thiophene-2-carbonyl]piperazin-1-yl]benzamide] | 0.0% | 0.0%
7 | CCOc1cccc(-c2ccc(C(=O)N3CCN(c4ccc(C(=O)NS(=O)(=O)C(C)(C)C)cc4)CC3)cc2C)c1 [B2L025-01, N-tert-Butylsulfonyl-4-[4-[4-(3-ethoxyphenyl)-3-methylbenzoyl]piperazin-1-yl]benzamide] | 0.0% | 0.0%
8 | CCOc1cncc(-c2ccc(C(=O)N3CCN(c4ccc(C(=O)NS(=O)(=O)C(C)(C)C)cc4)CC3)cc2C)c1 [B2L026-01, N-tert-Butylsulfonyl-4-[4-[4-(5-ethoxypyridin-3-yl)-3-methylbenzoyl]piperazin-1-yl]benzamide] | 0.0% | 0.0%
9 | CCOc1cccc(-c2ccc(C(=O)N3CCN(c4ccc(C(=O)NS(=O)(=O)C(C)(C)C)cc4)CC3)cc2F)c1 [B2L027-01, N-tert-Butylsulfonyl-4-[4-[4-(3-ethoxyphenyl)-3-fluorobenzoyl]piperazin-1-yl]benzamide] | 0.0% | 0.0%
10 | CCOc1cncc(-c2ccc(C(=O)N3CCN(c4ccc(C(=O)NS(=O)(=O)C(C)(C)C)cc4)CC3)cc2F)c1 [B2L028-01, N-tert-Butylsulfonyl-4-[4-[4-(5-ethoxypyridin-3-yl)-3-fluorobenzoyl]piperazin-1-yl]benzamide] | 0.0% | 0.0%
11 | CCOc1cccc(C#Cc2ccccc2C(=O)N2CCN(c3ccc(C(=O)NS(=O)(=O)C(C)(C)C)cc3)CC2)c1 [B2L029-01, N-tert-Butylsulfonyl-4-[4-[2-[2-(3-ethoxyphenyl)ethynyl]benzoyl]piperazin-1-yl]benzamide] | 0.0% | 
12 | CCOc1cccc(C#Cc2cncc(C(=O)N3CCN(c4ccc(C(=O)NS(=O)(=O)C(C)(C)C)cc4)CC3)c2)c1 [B2L031-01, N-tert-Butylsulfonyl-4-[4-[5-[2-(3-ethoxyphenyl)ethynyl]pyridine-3-carbonyl]piperazin-1-yl]benzamide] | 0.0% | 0.0%
13 | CCOc1cncc(C#Cc2cncc(C(=O)N3CCN(c4ccc(C(=O)NS(=O)(=O)C(C)(C)C)cc4)CC3)c2)c1 [B2L032-01, N-tert-Butylsulfonyl-4-[4-[5-[2-(5-ethoxypyridin-3-yl)ethynyl]pyridine-3-carbonyl]piperazin-1-yl]benzamide] | 0.0% | −1.0%
14 | CCOc1cccc(-c2ccccc2CCC(=O)N2CCN(c3ccc(C(=O)NS(=O)(=O)C(C)(C)C)cc3)CC2)c1 [B2L033-01, N-tert-Butylsulfonyl-4-[4-[3-[2-(3-ethoxyphenyl)phenyl]propanoyl]piperazin-1-yl]benzamide] | 0.0% | 0.0%
15 | CCOc1cncc(-c2ccccc2CCC(=O)N2CCN(c3ccc(C(=O)NS(=O)(=O)C(C)(C)C)cc3)CC2)c1 [B2L034-01, N-tert-Butylsulfonyl-4-[4-[3-[2-(5-ethoxypyridin-3-yl)phenyl]propanoyl]piperazin-1-yl]benzamide] | 1.6% | 3.5%
16 | CCOc1cccc(-c2ccc(C(=O)N3CCN(c4ccc(C(=O)NS(=O)(=O)C(C)(C)C)cc4)CC3)c3ccccc23)c1 [B2L035-01, N-tert-Butylsulfonyl-4-[4-[4-(3-ethoxyphenyl)naphthalene-1-carbonyl]piperazin-1-yl]benzamide] | 0.0% | 
17 | CCOc1cncc(-c2ccc(C(=O)N3CCN(c4ccc(C(=O)NS(=O)(=O)C(C)(C)C)cc4)CC3)c3ccccc23)c1 [B2L036-01, N-tert-Butylsulfonyl-4-[4-[4-(5-ethoxypyridin-3-yl)naphthalene-1-carbonyl]piperazin-1-yl]benzamide] | 0.0% | 0.0%
18 | CCOc1cccc(-c2cc(C(=O)N3CCN(c4ccc(C(=O)NS(=O)(=O)C(C)(C)C)cc4)CC3)cc(C(C)(C)C)c2)c1 [B2L037-01, 4-[4-[3-tert-Butyl-5-(3-ethoxyphenyl)benzoyl]piperazin-1-yl]-N-tert-butylsulfonylbenzamide] | 0.0% | 0.0%
19 | CCOc1cncc(-c2cc(C(=O)N3CCN(c4ccc(C(=O)NS(=O)(=O)C(C)(C)C)cc4)CC3)cc(C(C)(C)C)c2)c1 [B2L038-01, 4-[4-[3-tert-Butyl-5-(5-ethoxypyridin-3-yl)benzoyl]piperazin-1-yl]-N-tert-butylsulfonylbenzamide] | 0.0% | 0.0%
20 | CCOc1cccc(-c2cc(C(=O)N3CCN(c4ccc(C(=O)NS(=O)(=O)C(C)(C)C)cc4)CC3)cc(C(F)(F)F)c2)c1 [B2L039-01, N-tert-Butylsulfonyl-4-[4-[3-(3-ethoxyphenyl)-5-(trifluoromethyl)benzoyl]piperazin-1-yl]benzamide] | 0.0% | 0.0%
21 | CCOc1cncc(-c2cc(C(=O)N3CCN(c4ccc(C(=O)NS(=O)(=O)C(C)(C)C)cc4)CC3)cc(C(F)(F)F)c2)c1 [B2L040-01, N-tert-Butylsulfonyl-4-[4-[3-(5-ethoxypyridin-3-yl)-5-(trifluoromethyl)benzoyl]piperazin-1-yl]benzamide] | −0.2% | 1.0%
22 | CCOc1cccc(C#Cc2cc(C(=O)N3CCN(c4ccc(C(=O)NS(=O)(=O)C(C)(C)C)cc4)CC3)cc(C(F)(F)F)c2)c1 [B2L041-01, N-tert-Butylsulfonyl-4-[4-[3-[2-(3-ethoxyphenyl)ethynyl]-5-(trifluoromethyl)benzoyl]piperazin-1-yl]benzamide] | 0.0% | 
23 | CCOc1cncc(C#Cc2cc(C(=O)N3CCN(c4ccc(C(=O)NS(=O)(=O)C(C)(C)C)cc4)CC3)cc(C(F)(F)F)c2)c1 [B2L042-01, N-tert-Butylsulfonyl-4-[4-[3-[2-(5-ethoxypyridin-3-yl)ethynyl]-5-(trifluoromethyl)benzoyl]piperazin-1-yl]benzamide] | 0.0% | 0.0%
24 | CCOc1cccc(-c2cnn(-c3cc(C(=O)N4CCN(c5ccc(C(=O)NS(=O)(=O)C(C)(C)C)cc5)CC4)cc(C(F)(F)F)c3)c2)c1 [B2L043-01, N-tert-Butylsulfonyl-4-[4-[3-[4-(3-ethoxyphenyl)pyrazol-1-yl]-5-(trifluoromethyl)benzoyl]piperazin-1-yl]benzamide] | 0.0% | 0.0%
25 | CCOc1cccc(-c2ccccc2CN2CCN(c3ccc(C(=O)NS(=O)(=O)C(C)(C)C)cc3)CC2)c1 [B2L045-01, N-tert-Butylsulfonyl-4-[4-[[2-(3-ethoxyphenyl)phenyl]methyl]piperazin-1-yl]benzamide] | 0.0% | 0.0%
26 | CCOc1cncc(-c2ccccc2CN2CCN(c3ccc(C(=O)NS(=O)(=O)C(C)(C)C)cc3)CC2)c1 [B2L046-01, N-tert-Butylsulfonyl-4-[4-[[2-(5-ethoxypyridin-3-yl)phenyl]methyl]piperazin-1-yl]benzamide] | 0.0% | 0.0%
27 | CCOc1cccc(-c2ccc(CN3CCN(c4ccc(C(=O)NS(=O)(=O)C(C)(C)C)cc4)CC3)cc2C)c1 [B2L047-01, N-tert-Butylsulfonyl-4-[4-[[4-(3-ethoxyphenyl)-3-methylphenyl]methyl]piperazin-1-yl]benzamide] | 0.0% | 0.0%
28 | CCOc1cncc(-c2ccc(CN3CCN(c4ccc(C(=O)NS(=O)(=O)C(C)(C)C)cc4)CC3)cc2C)c1 [B2L048-01] | 3.9% | −5.0%
29 | CCOc1cccc(-c2ccc(CN3CCN(c4ccc(C(=O)NS(=O)(=O)C(C)(C)C)cc4)CC3)c(CC)c2)c1 [B2L049-01, N-tert-Butylsulfonyl-4-[4-[[4-(3-ethoxyphenyl)-2-ethylphenyl]methyl]piperazin-1-yl]benzamide] |  | 0.0%
